This note sets out measurements from patent publication US8871753B2, “Macrocyclic compounds and their use as kinase inhibitors” (Incyte Corporation, priority 2008, dated 2014).

Holding throughout (type): biochemical
The target in one test is TYK2 (Homo sapiens, UniProt P29597). Description: TYK2 kinase inhibition (Table A1).
In test [1] the target is T1, human JAK1 (a.a. 837-1142) (Homo sapiens, UniProt P23458).
T1 construct: human JAK1 (a.a. 837-1142); His tag (N); made in house; host or cells: insect cells (baculovirus)
Description: In vitro JAK kinase assay (HTRF, phosphorylation of a biotinylated peptide), JAK1. The conditions noted are these: read-out: JAK1 IC50. The method in brief: (§1)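 Kinase activity was measured as phosphorylation of a biotinylated peptide, with ATP at 90 μM for JAK1, 30 μM for JAK2 and 3 μM for JAK3. Reactions ran 1 hr at room temperature, were stopped with EDTA plus SA-APC and Eu-Py20, and were read by HTRF after 40 minutes of antibody binding.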

Test [2] deals with T2, human JAK3 (a.a. 781-1124) (Homo sapiens, UniProt P52333).
T2 construct: JAK3 (a.a. 781-1124); His tag (N); made in house; host or cells: insect cells (baculovirus)
Description: In vitro JAK kinase assay (HTRF, phosphorylation of a biotinylated peptide), JAK3. The method in brief: as §1
A general note: In TR-FRET formats the signal depends on donor and acceptor labels being close together.

Test [3] addresses T3, human JAK2 (a.a. 828-1132) (Homo sapiens, UniProt O60674).
T3 construct: JAK2 (a.a. 828-1132); His tag (N); made in house; host or cells: insect cells (baculovirus)
Description: In vitro JAK kinase assay (HTRF, phosphorylation of a biotinylated peptide), JAK2. An outline of the steps:
as §1

Counter-ions that a name gives are not always drawn. Like-named read-outs stand apart in the source and are kept apart here.

Chain of TYK2 (P29597 whole entry): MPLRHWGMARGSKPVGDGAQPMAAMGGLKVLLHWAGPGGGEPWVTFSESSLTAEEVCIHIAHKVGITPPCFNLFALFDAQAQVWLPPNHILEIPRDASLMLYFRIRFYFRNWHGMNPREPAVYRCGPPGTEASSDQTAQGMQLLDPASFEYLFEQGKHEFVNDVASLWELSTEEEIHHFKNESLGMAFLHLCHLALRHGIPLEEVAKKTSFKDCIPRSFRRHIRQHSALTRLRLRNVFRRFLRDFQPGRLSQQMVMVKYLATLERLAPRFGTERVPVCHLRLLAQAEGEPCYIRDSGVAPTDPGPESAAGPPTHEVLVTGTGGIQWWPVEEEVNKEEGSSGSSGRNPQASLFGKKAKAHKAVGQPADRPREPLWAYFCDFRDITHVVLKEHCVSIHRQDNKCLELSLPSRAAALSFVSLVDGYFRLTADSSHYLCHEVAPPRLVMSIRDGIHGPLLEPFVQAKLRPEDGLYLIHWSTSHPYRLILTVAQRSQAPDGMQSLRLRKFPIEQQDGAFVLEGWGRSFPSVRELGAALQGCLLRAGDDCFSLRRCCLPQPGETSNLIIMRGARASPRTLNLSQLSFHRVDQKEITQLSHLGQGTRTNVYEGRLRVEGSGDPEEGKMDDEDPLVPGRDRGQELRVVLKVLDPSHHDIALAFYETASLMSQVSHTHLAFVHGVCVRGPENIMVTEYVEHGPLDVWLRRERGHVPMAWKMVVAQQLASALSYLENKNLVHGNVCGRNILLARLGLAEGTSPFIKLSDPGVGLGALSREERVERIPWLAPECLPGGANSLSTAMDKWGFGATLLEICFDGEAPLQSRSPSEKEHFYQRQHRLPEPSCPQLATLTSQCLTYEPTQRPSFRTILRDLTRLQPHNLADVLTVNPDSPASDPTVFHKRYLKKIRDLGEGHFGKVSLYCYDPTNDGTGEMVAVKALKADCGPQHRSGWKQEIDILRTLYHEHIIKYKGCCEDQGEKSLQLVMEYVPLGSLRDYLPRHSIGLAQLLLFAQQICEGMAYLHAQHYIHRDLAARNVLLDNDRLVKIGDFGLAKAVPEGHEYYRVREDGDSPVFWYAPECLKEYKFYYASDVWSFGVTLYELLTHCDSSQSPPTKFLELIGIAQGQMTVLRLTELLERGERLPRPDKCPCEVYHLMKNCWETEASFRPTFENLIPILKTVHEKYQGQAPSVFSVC
T1 sequence (P23458 849-1154): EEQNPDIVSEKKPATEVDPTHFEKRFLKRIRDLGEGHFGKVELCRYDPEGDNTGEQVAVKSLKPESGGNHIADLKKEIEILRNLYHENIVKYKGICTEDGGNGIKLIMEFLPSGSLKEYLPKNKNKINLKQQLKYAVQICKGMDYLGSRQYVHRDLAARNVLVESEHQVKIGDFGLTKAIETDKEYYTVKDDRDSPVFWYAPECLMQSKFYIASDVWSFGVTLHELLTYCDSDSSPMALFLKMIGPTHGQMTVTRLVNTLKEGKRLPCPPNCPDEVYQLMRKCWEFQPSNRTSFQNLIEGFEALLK
T2 sequence (P52333 781-1124): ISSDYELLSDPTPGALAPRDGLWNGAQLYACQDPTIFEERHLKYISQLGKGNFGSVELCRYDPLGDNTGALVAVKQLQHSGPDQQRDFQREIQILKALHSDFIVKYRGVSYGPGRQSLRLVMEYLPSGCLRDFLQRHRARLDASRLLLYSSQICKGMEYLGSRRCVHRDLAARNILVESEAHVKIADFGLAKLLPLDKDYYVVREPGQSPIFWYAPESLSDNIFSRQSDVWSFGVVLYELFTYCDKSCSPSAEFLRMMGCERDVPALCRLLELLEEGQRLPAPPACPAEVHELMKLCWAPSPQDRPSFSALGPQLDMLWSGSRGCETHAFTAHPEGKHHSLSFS
T3 sequence (O60674 828-1132): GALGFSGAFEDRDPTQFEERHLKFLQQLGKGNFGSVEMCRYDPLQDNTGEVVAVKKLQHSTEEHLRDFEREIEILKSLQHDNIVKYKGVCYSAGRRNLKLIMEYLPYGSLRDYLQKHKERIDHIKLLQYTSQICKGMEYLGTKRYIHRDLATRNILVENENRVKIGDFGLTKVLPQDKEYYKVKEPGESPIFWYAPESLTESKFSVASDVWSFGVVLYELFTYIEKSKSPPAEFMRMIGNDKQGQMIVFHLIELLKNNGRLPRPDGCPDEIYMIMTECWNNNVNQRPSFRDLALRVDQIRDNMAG

The IC50 is the point on the concentration scale where inhibition reaches its midpoint. In the case of `O=C(CC1CCN(c2nncs2)C1)Nc1ccc2cc1CCc1cncc(c1)Nc1ncc(Cl)c(n1)N2` (centres unmarked) [Example D155, N-[6-Chloro-2,4,8,18,22-pentaazatetracyclo[14.3.1.1(3,7).1(9,13)]docosa-1(20),3(22),4,6,9(21),10,12,16,18-nonaen-12-yl]-2-[1-(1,3,4-thiadiazol-2-yl)pyrrolidin-3-yl]acetamide tris(trifluoroacetate)], the IC50 was over 0.4 µM at TYK2 (Table D1), 0.029 µM in test [1] (Table D1), over 0.4 µM in test [2] (Table D1) and 0.12 µM in test [3] (Table D1).

Take `Cc1cc(C(=O)N2CCC[C@@H](CC(=O)Nc3ccc4cc3CCc3cncc(c3)Nc3ncc(Cl)c(n3)N4)C2)no1` [Example D208, N-[6-Chloro-2,4,8,18,22-pentaazatetracyclo[14.3.1.1(3,7).1(9,13)]docosa-1(20),3(22),4,6,9(21),10,12,16,18-nonaen-12-yl]-2-{(3S)-1-[(5-methylisoxazol-3-yl)carbonyl]piperidin-3-yl}acetamide bis(trifluoroacetate)]: the IC50 on TYK2 (Table D1) was 0.082 µM; in test [1] (Table D1) it was 0.018 µM; in test [2] (Table D1), 0.064 µM; in test [3] (Table D1) it was 0.015 µM.

`O=C(NCc1ccco1)Nc1ccc2cc1CCc1cncc(c1)Nc1ncc(Cl)c(n1)N2` [Example B134, N-[6-Chloro-2,4,8,18,22-pentaazatetracyclo[14.3.1.1(3,7).1(9,13)]docosa-1(20),3(22),4,6,9(21),10,12,16,18-nonaen-12-yl]-N′-(2-furylmethyl)urea bis(trifluoroacetate)]: the IC50 against TYK2 (Table B1) was 0.0028 µM; in test [1] (Table B1) it was 0.00075 µM; in test [2] (Table B1), 0.023 µM; in test [3] (Table B1), 0.0017 µM.

On to `O=S(=O)(c1ccccc1F)N1CCC(CCNc2ccc3cc2CCc2cncc(c2)Nc2ncc(Cl)c(n2)N3)CC1` [Example D221, 6-Chloro-N-(2-{1-[(2-fluorophenyl)sulfonyl]piperidin-4-yl}ethyl)-2,4,8,18,22-pentaazatetracyclo[14.3.1.1(3,7).1(9,13)]docosa-1(20),3(22),4,6,9(21),10,12,16,18-nonaen-12-amine tris(trifluoroacetate)], for which the IC50 was 0.059 µM against TYK2 (Table D1), 0.02 µM in test [1] (Table D1), over 0.4 µM in test [2] (Table D1) and 0.07 µM in test [3] (Table D1).

`O=C(COc1ccc2cc1CCc1cncc(c1)Nc1ncc(Cl)c(n1)N2)N1CCN(c2cccc(C(F)(F)F)n2)CC1` [Example D248, 6-Chloro-12-(2-oxo-2-{4-[6-(trifluoromethyl)pyridin-2-yl]piperazin-1-yl}ethoxy)-2,4,8,18,22-pentaazatetracyclo[14.3.1.1(3,7).1(9,13)]docosa-1(20),3(22),4,6,9(21),10,12,16,18-nonaene tris(trifluoroacetate)]: the IC50 against TYK2 (Table D1) is over 0.4 µM; in test [1] (Table D1) it was 0.059 µM; in test [2] (Table D1), over 0.4 µM; in test [3] (Table D1) it was over 0.4 µM.

As for `O=C(CC1CN(c2nncs2)C1)Nc1ccc2cc1CCc1cncc(c1)Nc1ncc(Cl)c(n1)N2` [Example D151, N-[6-Chloro-2,4,8,18,22-pentaazatetracyclo[14.3.1.1(3,7).1(9,13)]docosa-1(20),3(22),4,6,9(21),10,12,16,18-nonaen-12-yl]-2-[1-(1,3,4-thiadiazol-2-yl)azetidin-3-yl]acetamide tris(trifluoroacetate)], the IC50 on TYK2 (Table D1) was over 0.2 µM; in test [1] (Table D1) it was 0.076 µM; in test [2] (Table D1), over 0.2 µM; in test [3] (Table D1), over 0.2 µM.

As to `O=C(Cc1nc2ccccc2[nH]1)Nc1ccc2cc1CCc1cccc(c1)Nc1ncc(Cl)c(n1)N2` [Example C44, 2-(1H-Benzimidazol-2-yl)-N-[6-chloro-2,4,8,22-tetraazatetracyclo[14.3.1.1(3,7).1(9,13)]docosa-1(20),3(22),4,6,9(21),10,12,16,18-nonaen-12-yl]acetamide bis(trifluoroacetate)], the half-maximal inhibitory concentration (IC50) at TYK2 is 0.478 µM; in test [1], 0.07 µM; in test [2], 0.779 µM; in test [3], 0.053 µM.

On to `NC(=O)N1CCN(c2ccc3cc2CCc2cccc(c2)Nc2ncc(Cl)c(n2)N3)CC1` [Example D87, 4-[6-Chloro-2,4,8,22-tetraazatetracyclo[14.3.1.1(3,7).1(9,13)]docosa-1(20),3(22),4,6,9(21),10,12,16,18-nonaen-12-yl]piperazine-1-carboxamide bis(trifluoroacetate)], for which the IC50 at TYK2 (Table D1) worked out at 0.03 µM; in test [1] (Table D1), 0.018 µM; in test [2] (Table D1), 0.034 µM; in test [3] (Table D1) it was 0.0033 µM.

In the case of `N#Cc1cccc(NC(=O)N2CCN(c3ccc4cc3CCc3cccc(c3)Nc3ncc(Cl)c(n3)N4)CC2)c1` [Example D89, 4-[6-Chloro-2,4,8,22-tetraazatetracyclo[14.3.1.1(3,7).1(9,13)]docosa-1(20),3(22),4,6,9(21),10,12,16,18-nonaen-12-yl]-N-(3-cyanophenyl)piperazine-1-carboxamide bis(trifluoroacetate)], the IC50 against TYK2 (Table D1) was determined as 0.053 µM; in test [1] (Table D1), 0.066 µM; in test [2] (Table D1), 0.077 µM; in test [3] (Table D1), 0.0067 µM.

As for `CCCC(=O)N1Cc2cccc(c2)Nc2ncc(Cl)c(n2)Nc2cccc1c2` [Example C26, 14-Butyryl-6-chloro-2,4,8,14,22-pentaazatetracyclo[14.3.1.1(3,7).1(9,13)]docosa-1(20),3(22),4,6,9(21),10,12,16,18-nonaene], the concentration for half-maximal inhibition (IC50) at TYK2 is 1.42 µM; in test [1], 0.228 µM; in test [2], over 10 µM; in test [3], 0.357 µM.

With `O=C(C[C@@H]1CCCNC1)Nc1ccc2cc1CCc1cncc(c1)Nc1ncc(Cl)c(n1)N2` [Example D194, N-[6-Chloro-2,4,8,18,22-pentaazatetracyclo[14.3.1.1(3,7).1(9,13)]docosa-1(20),3(22),4,6,9(21),10,12,16,18-nonaen-12-yl]-2-[(3S)-piperidin-3-yl]acetamidetris(trifluoroacetate)], the IC50 at TYK2 (Table D1) was found to be 0.023 µM; in test [1] (Table D1), 0.0058 µM; in test [2] (Table D1), 0.144 µM; in test [3] (Table D1), 0.046 µM.

Consider `Cc1ncsc1CCC(=O)Nc1ccc2cc1CCc1cccc(c1)Nc1ncc(Cl)c(n1)N2` [Example C48, N-[6-Chloro-2,4,8,22-tetraazatetracyclo[14.3.1.1(3,7).1(9,13)]docosa-1(20),3(22),4,6,9(21),10,12,16,18-nonaen-12-yl]-3-(4-methyl-1,3-thiazol-5-yl)propanamide trifluoroacetate], for which the IC50 against TYK2 worked out at 0.647 µM; in test [1] it was 0.052 µM; in test [2], 1.15 µM; in test [3], 0.074 µM.

Take `O=C(COc1ccc2cc1CCc1cncc(c1)Nc1ncc(Cl)c(n1)N2)N1CCN(c2ccc(F)cc2)CC1` [Example D242, 6-Chloro-12-{2-[4-(4-fluorophenyl)piperazin-1-yl]-2-oxoethoxy}-2,4,8,18,22-pentaazatetracyclo[14.3.1.1(3,7).1(9,13)]docosa-1(20),3(22),4,6,9(21),10,12,16,18-nonaene tris(trifluoroacetate)]: the IC50 against TYK2 (Table D1) is over 0.4 µM; in test [1] (Table D1) it was 0.046 µM; in test [2] (Table D1), over 0.4 µM; in test [3] (Table D1), 0.159 µM.

Take `N#Cc1ccc(C(=O)N2CCN(c3ccc4cc3CCc3cccc(c3)Nc3ncc(Cl)c(n3)N4)CC2)cc1` [Example D95, 4-({4-[6-Chloro-2,4,8,22-tetraazatetracyclo[14.3.1.1(3,7).1(9,13)]docosa-1(20),3(22),4,6,9(21),10,12,16,18-nonaen-12-yl]piperazin-1-yl}carbonyl)benzonitrile bis(trifluoroacetate)]: the IC50 was 0.106 µM against TYK2 (Table D1), 0.025 µM in test [1] (Table D1), 0.087 µM in test [2] (Table D1) and 0.015 µM in test [3] (Table D1).

On to `NS(=O)(=O)N1CCN(C(=O)COc2ccc3cc2CCc2cncc(c2)Nc2ncc(Cl)c(n2)N3)CC1` [Example D268, 4-({[6-Chloro-2,4,8,18,22-pentaazatetracyclo[14.3.1.1(3,7).1(9,13)]docosa-1(20),3(22),4,6,9(21),10,12,16,18-nonaen-12-yl]oxy}acetyl)piperazine-1-sulfonamide bis(trifluoroacetate)], for which the IC50 against TYK2 (Table D1) is 0.049 µM; in test [1] (Table D1), 0.015 µM; in test [2] (Table D1), over 0.4 µM; in test [3] (Table D1), 0.036 µM.

Turning to `Cc1ccnc(N2CCN(C(=O)COc3ccc4cc3CCc3cncc(c3)Nc3ncc(Cl)c(n3)N4)CC2)c1` [Example D237, 6-Chloro-12-{2-[4-(4-methylpyridin-2-yl)piperazin-1-yl]-2-oxoethoxy}-2,4,8,18,22-pentaazatetracyclo[14.3.1.1(3,7).1(9,13)]docosa-1(20),3(22),4,6,9(21),10,12,16,18-nonaene tris(trifluoroacetate)], the IC50 against TYK2 (Table D1) was over 0.4 µM; in test [1] (Table D1), 0.029 µM; in test [2] (Table D1) it was over 0.4 µM; in test [3] (Table D1), 0.18 µM.

As for `O=C(C[C@H]1CCCN(C(=O)c2ccccc2)C1)Nc1ccc2cc1CCc1cncc(c1)Nc1ncc(Cl)c(n1)N2` [Example D207, 2-[(3R)-1-Benzoylpiperidin-3-yl]-N-[6-chloro-2,4,8,18,22-pentaazatetracyclo[14.3.1.1(3,7).1(9,13)]docosa-1(20),3(22),4,6,9(21),10,12,16,18-nonaen-12-yl]acetamide bis(trifluoroacetate)], the IC50 against TYK2 (Table D1) was found to be 0.056 µM; in test [1] (Table D1), 0.0094 µM; in test [2] (Table D1), 0.109 µM; in test [3] (Table D1), 0.0054 µM.
